Blank lines part the entries; values can stand above or below the compound they belong to.
Legend:
ICR mice = assay: Acute toxicity assay in mice; format: in vivo; conditions: 2 weeks
Source text: (§1) Male ICR mice, 8 weeks old (Harlan, Israel) were acclimated for 10 days before administration of the tested compounds. The animals were monitored for two weeks and weighed three times per week.

[1] = Acute toxicity assay in mice; format: in vivo; conditions: male, mouse, in vivo; single per os dose, ICR mice
Source text: as §1

acetylated histone H4 = assay: In vivo histone H4 acetylation in 4T1 tumors (Western blot); set-up: species or system mice; conditions: 100 mg/kg each, 4 hours after treatment, vs vehicle
Procedure: For the determination of in vitro histone acetylation, 2.5-3×10^6 cells, seeded in 100 mm culture dishes, were supplemented with RPMI medium containing 10% heat inactivated FCS and were treated with the drugs the following day. At the specified times post-treatment, the cells were removed with a rubber policeman, centrifuged, washed, lysed with lysis buffer (PBS, Nonidet® NP-40 1%, sodium deoxycholate 0.5%, sodium dodecyl sulfate (SDS) 0.1%, 1 mM phenylmethylsulfonyl fluoride (PMSF), 1 mM sodium orthovanadate, and 1 μM each of leupeptin and pepstatin) and centrifuged at 10,000 g for 10 minutes at 4° C. […] The extract was then lyophilized, and protein concentration was determined with a BCA kit (Pierce, USA). […] The fold increase of acetylated histones was determined by the ratio of band intensities of treated and untreated cells or mice, normalized to loading control (total histone H3).
Cell lysates or acid extracted histones were solubilized in a concentrated (×4) loading buffer (62.5 mM Tris-HCl, pH 6.8, 1% SDS, 10% glycerol v/v, 1% dithiothreitol (DTT) and 0.1 mg/ml bromophenol blue). […] The membrane was exposed for 5 minutes to Chemiluminescence BioMax light film (Kodak, USA) and the intensity of the bands was measured with a VersaDoc instrument with a Quantityl program (Bio-Rad, USA). […]

[2] = test system: 4T1 murine breast carcinoma; assay: Metastatic 4T1 breast carcinoma model; format: in vivo, mice; conditions: 4T1 model; for anti-cancer activity (number of metastases and lung weight): 40 or 80 mg/kg, FIG. 18
Procedure: The syngeneic murine breast carcinoma metastatic model was performed with 8-10 weeks old BALB-c mice implanted with 4T1 cells. When the tumor volume reached 75-180 mm^3 (after ˜10 days), treatment was initiated for an additional 21 days. At termination, the animals were sacrificed and their lungs removed, stained with Bouin's solution, and lung lesions were scored under an illuminated magnifying glass.

[3] = test system: 3LLD122 Lewis lung carcinoma; assay: Metastatic Lewis lung carcinoma (3LL) model; format: in vivo, mice; conditions: Compound 6 30 mg/kg, Compound 7 25 mg/kg, per os thrice per week, 21 days; p<0.02 vs acyclovir
Procedure: Female C57/BL mice, 7-10 weeks old, were acclimated for ten days. All in vivo experiments were conducted according to the NIH Laboratory Animal Care Guidelines and in accordance with the guidelines and approval of the Tel Aviv University Committee for Animal Experimentation.
The subclone 3LLD122 of 3LL used in the study was selected for its aggressive and invasive nature. […] The animals were sacrificed after 21 days of treatment, their lungs were weighed, stained with Bouin's fixative and the metastatic lesions were scored double-blindly.

U-251 cells [4] = assay: Mitochondrial membrane potential (JC-1 staining), U-251 cells; format: cell-based, human; conditions: 60 μM, 24 hour treatment
U-251 cells [5] = assay: Apoptosis/cell death by annexin V-FITC and propidium iodide FACS, U-251 cells; format: cell-based; conditions: U-251 cells, 24 hours
Procedure: Cells were seeded in six-well plates (10^5 cells/well) for 24 hours and were then treated as specified, trypsinized, washed with PBS, double-stained with annexin V-FITC (fluorescein isothiocyanate) and propidium iodide, according to the manufacturer's instructions and subjected to flow cytometry analysis (FACScalibur cytometer, Becton Dickinson).

22RV1 cells = assay: Hoechst viability assay, 22RV1 prostate carcinoma cells; format: cell-based, human; conditions: Homo sapiens, 72 hours, Hoechst, read-out: IC50
Procedure: (§2) Cells (in quadruplicate) at the specified density were suspended in 200 μL medium supplemented with 10% FCS seeded in 96-well plates for 24 hours, then exposed to the drugs for 72 hours. The viability of the cells was determined by Hoechst fluorescent assay as described by Nudelman et al., 2005. Leukemic cell viability after 72 hours of treatment was determined by an MTT (3-(4,5-dimethylthiazol-2-yl)-2,5-diphenyltetrazolium bromide) assay as described by Levovich et al., 2007.
(§3) IC50 values were determined by linear regression of the percentage of survival following drug titration.

U-251 cells [6] = assay: Hoechst viability assay, U-251 glioma cells; format: cell-based, human; conditions: Homo sapiens, 72 hours, Hoechst, read-out: IC50
Procedure: as §2, §3

phospho-H2AX (Ser139) = assay: Phospho-H2AX Western blot, U-251 cells; format: cell-based, human; conditions: 60 μM, 0.5, 2 or 24 hours, peak after 2 hours
Procedure: Cell lysates or acid extracted histones were solubilized in a concentrated (×4) loading buffer (62.5 mM Tris-HCl, pH 6.8, 1% SDS, 10% glycerol v/v, 1% dithiothreitol (DTT) and 0.1 mg/ml bromophenol blue). Proteins (10-40 μg) were run on SDS-PAGE, transferred to a nitrocellulose membrane (Schleicher & Schuell, Germany) and probed with the primary antibodies, followed by incubation with a horseradish peroxidase (HRP)-goat anti-rabbit IgG or HRP-rabbit anti-mouse IgG as secondary antibodies. HRP bound to the secondary antibodies was visualized by the enhanced chemiluminescence method using the Western Blotting Luminol reagent (Santa Cruz, Calif., USA). The membrane was exposed for 5 minutes to Chemiluminescence BioMax light film (Kodak, USA) and the intensity of the bands was measured with a VersaDoc instrument with a Quantityl program (Bio-Rad, USA). The fold increase of each specific protein was determined by the ratio of band intensities of treated and untreated cells, normalized to loading control (actin or total histone H3).

4T1 cells = assay: Hoechst viability assay, 4T1 breast carcinoma cells (Dox combination); format: cell-based, murine; conditions: Mus musculus, 72 hours, 3 experiments
Procedure: as §2, §3
The combination index for drug interaction was calculated by Chou's Median Effect Analysis (MEA) [Chou, 2006]. The combination index (CI) was defined as CI=D1/(DM)1+D2/(DM)2, where D1 and D2 are the doses of drug 1 and drug 2, respectively, (DM)1 and (DM)2 are the doses of drug 1 and drug 2 and their mixture (in a specified ratio) required to produce a median effect, e.g., IC50. CI<1, =1 or >1 indicates synergism, additive effect, and antagonism respectively.

[7] = test system: rat primary cardiomyocytes; assay: ROS production (DCF-DA) in rat primary cardiomyocytes; format: cell-based; conditions: 2 μM
Procedure: Neonatal rat ventricular cardiomyocytes were isolated and cultured in collagen coated culture dishes as described by Shalitin et al., 1996. Growth medium contained DMEM:Ham's F12 (1:1), fetal calf serum (10%) and antibiotics. Treatment was administered to spontaneously beating cardiomyocytes 48 hours after plating.

U-251 cells [8] = assay: Cell cycle analysis (propidium iodide flow cytometry), U-251 cells; format: cell-based, human; conditions: 24 hours
Procedure: Cells (4×10^5) were seeded in 35 mm culture dishes and after 24 hours were starved in medium without serum for an additional 24 hours, and then treated with the drug for an additional 24 hours. The cells were then trypsinized to a single cell suspension in PBS, washed, and resuspended in PBS at a concentration of 10^6 cells/mL. The cells were fixed with 70% ethanol for 30 minutes at 4° C., centrifuged and resuspended in 1 ml PBS containing 0.1% Tween 20 and 0.05% bovine serum albumin (BSA). RNase free of DNase was added, and the cell suspension (10^6 cells) was incubated at […] for 30 minutes. The cell suspension was then chilled on ice to a temperature in the range of 2 to 8° C. Propidium iodide (50 μg/mL) was added to the cell suspension, which was than kept in the dark. Red fluorescence (>630 nm) was analyzed on the flow cytometer.

U-251 cells [9] = assay: Reactive oxygen species by DCF-DA FACS, U-251 cells; format: cell-based, human; conditions: 2 hour treatment
Procedure: ROS levels were determined by FACS analysis of U-251 cells treated with dichlorodihydrofluorescein diacetate (DCF-DA), which becomes fluorescent when oxidized.

proteasome = biological target: T1, proteasome (Homo sapiens, UniProt P28074); assay: Proteasome activity assay, U-251 cells; format: cell-based; conditions: 4 or 24 hours, alone or in combination
T1 construct: proteasome activity in U-251 cells treated for 4 or 24 hours; endogenous in cells; host or cells: U-251 cells (lysates of treated cells)
T1 sequence (P28074 60-263): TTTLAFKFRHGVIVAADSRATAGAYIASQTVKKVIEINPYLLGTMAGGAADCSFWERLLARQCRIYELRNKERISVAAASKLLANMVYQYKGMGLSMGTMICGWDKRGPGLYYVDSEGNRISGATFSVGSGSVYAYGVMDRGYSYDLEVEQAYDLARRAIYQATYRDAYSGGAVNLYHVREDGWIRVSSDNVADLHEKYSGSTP
Procedure: The peptidase or chymotrypsin-like activity of the proteasome was assayed using N-succinyl-Leu-Leu-Val-Tyr-7-amido-4-methylcoumarin. The lysates (100 μL) were incubated with 13 (M of the substrate in 100 mM Tris, pH 7.5, for 1 hour with shaking at room temperature. The reaction was stopped by addition of ice-cold ethanol, and the samples were centrifuged for 5 minutes at 2500 g. The supernatants were collected and the fluorescence was measured with excitation/emission filters of 390/460 nm using the FluoStar fluorimeter. The protein concentration was determined using a BCATM kit (Pierce) and the proteasome activity was derived from the ratio of fluorescence at 460 nm/(g of protein. The percentage of proteasome activity was calculated relative to untreated cells.

SMILES: CCCC(=O)Nc1nc2c(ncn2COCCOC(=O)CCC)c(=O)[nH]1 [Compound 7, N-butyryl-9-(2-butyryloxy)ethoxymethylguanine]
- Survival (%) (ICR mice; single per os dose 150 mg/kg): 100%
- Survival (%) (ICR mice; single per os dose 200 mg/kg): 100%
- Survival (%) (ICR mice; single per os dose 250 mg/kg): 100%
- Survival (%) (ICR mice; single per os dose 500 mg/kg): 100%
- Survival (%) (ICR mice; single per os dose 750 mg/kg): 100%
- LD50 at 2 weeks [1]: > 750 mg/kg
- levels of acetylated H4 in tumors (acetylated histone H4): significantly higher levels of acetylated H4
- lung weight ([2]; 25 mg/kg, p<0.05): reduction in lung weight
- number of observed lung lesions ([2]; 25 mg/kg, p<0.05): reduction in the number of observed lung lesions
- anti-cancer activity (number of metastases and lung weight) [2]: significant anti-cancer activity
- number of lung macro-lesions (anti-metastatic activity) [3]: significant anti-metastatic activity

SMILES: CCCCCCCC(=O)Nc1nc2c(ncn2COCCOC(=O)CCCCCCC)c(=O)[nH]1 [Compound 8, N-octanoyl-9-(2-octanoyloxy)ethoxymethylguanine]
- anti-cancer activity (number of metastases and lung weight) [2]: little, if any anticancer activity

SMILES: CCCCCC(=O)Nc1nc2c(ncn2COCCOC(=O)CCCCC)c(=O)[nH]1 [Compound 20, N-hexanoyl-9-(2-hexanoyloxy)-ethoxymethylguanine]
- anti-cancer activity (number of metastases and lung weight) [2]: little, if any anticancer activity

SMILES: O=C(/C=C/c1ccccc1)Nc1nc2c(ncn2COCCOC(=O)/C=C/c2ccccc2)c(=O)[nH]1 [Compound 22, N-cinnamoyl-9-(2-cinnamoyloxy)-ethoxymethylguanine]
- mitochondrial membrane potential (U-251 cells [4]): no apparent effect
- level of phosphorylated H2AX (phospho-H2AX (Ser139)): induced an increase in the level of phosphorylated H2AX

Continued, in another order:

- IC50 (22RV1 cells): 241 ± 12 µM
- IC50 (U-251 cells [6]): 251 ± 12 µM
SMILES: CCCC(CCC)C(=O)OCCOCn1cnc2c(=O)[nH]c(N)nc21 [Compound 12, 9-(2-valproyloxy)ethoxymethylguanine]
- mitochondrial membrane potential (U-251 cells [4]): no apparent effect
- percentage of apoptotic cells (U-251 cells [5]): increased the percentage of apoptotic cells in a dose dependent manner

- IC50 (22RV1 cells): 402 ± 22 µM
- IC50 (U-251 cells [6]): > 750 µM
SMILES: CCCC(CCC)C(=O)Nc1nc2c(ncn2COCCO)c(=O)[nH]1 [Compound 23, N-valproyl-9-(2-hydroxy)ethoxymethylguanine]
- mitochondrial membrane potential (U-251 cells [4]): no apparent effect

- IC50 (4T1 cells): 0.0165 µM
SMILES: COc1cccc2c1C(=O)c1c(O)c3c(c(O)c1C2=O)C[C@@](O)(C(=O)CO)C[C@@H]3O[C@H]1C[C@H](N)[C@H](O)[C@H](C)O1 [doxorubicin, reference compound]
- production of ROS [7]: increased dramatically the production of ROS

- inhibitory effect on proteasome activity (proteasome): only a marginal inhibitory effect
SMILES: CCCC(CCC)C(=O)O [valproic acid, reference compound]
- phase of cell-cycle arrest (U-251 cells [8]; 1 mM): G2-M phase
- Percentage of cells in G0-G1 stage (U-251 cells [8]; 1000 μM): 20.3%
- Percentage of cells in G2-M stage (U-251 cells [8]; 1000 μM): 47.5%
- Percentage of cells in S stage (U-251 cells [8]; 1000 μM): 32.5%
- level of oxidation in cells (ROS) (U-251 cells [9]): little if any effect

— US9334272B2, “Derivatives of purinic and pyrimidinic antiviral agents and use thereof as potent anticancer agents” (Ramot at Tel-Aviv University Ltd., priority 2007, dated 2016)
